From patent US8470776B2, “Conjugates of disorazoles and their derivatives with cell-binding molecules, novel disorazole derivatives, processes of manufacturing and uses thereof” (Aeterna Zentaris GmbH, priority 2006, dated 2013)
≈ marks a conversion by molar mass, not a printed value. Where “and” joins values, the source holds several entries; their conditions need not be identical. Equal entries are not always repeated.

Experiments:
[1] = system: lung carcinoma cell line NCI-H460; test: cells; type: cell-based, human; details: XTT, 45 h incubation
Excerpt: (§1) Selected compounds of the invention were investigated for their antiproliferative activity in a proliferation test on established tumor cell lines.
(§2) The test used determines the cellular dehydrogenase activity and makes possible a determination of the cell vitality and indirectly the cell count.
(§3) The cell lines used are the human cervical carcinoma cell line KB/HeLa (ATCC CCL17), the ovarian adenocarcinoma cell line SKOV-3 (ATCC HTB77), the human glioblastoma cell line SF-268 (NCI-503138) and the lung carcinoma cell line NCI-H460 (NCI-503473). In addition, for the investigation of the cell cycle-specific action of the compounds of the invention, an RKOp27 cell system was used (Schmidt M et al. Oncogene 2000, 19(20): 2423-2429). RKO is a human colon carcinoma cell line (ATCC CRL-2577), in which the cell cycle inhibitor p27^kip1 induced by means of the ecdysone expression system is expressed and can be led to a cell cycle arrest specifically in […]. A nonspecifically acting substance inhibits the proliferation independently of whether the RKO cell is or is not arrested in G1 or G2. Cell cycle-specific substances such as, for example, tubulin inhibitors are, however, only cytotoxic if cells are not arrested and the cell cycle is passed through.
(§4) The adherently growing tumor cell lines KB/HeLa, SKOV-3, SF-268 and NCI-H460 were cultured under standard conditions in an incubator at 37° C., 5% CO2 and 95% atmospheric humidity. On experimental day 1, the cells are detached using trypsin/EDTA and pelleted by centrifugation. Subsequently, the cell pellet is resuspended in the respective culture medium at the corresponding cell count and reacted in a 96-well microtiter plate. The plates are then cultured overnight in the incubator. The test substances are prepared as 1 mg/ml stock solutions in DMSO and diluted to the appropriate concentrations on experimental day 2 using culture medium. The substances in culture medium are then added to the cells and incubated in the incubator for 45 h. As a control, cells which are not treated with test substance are used. For the XTT assay, 1 mg/ml of XTT (sodium 3′-[1-(phenylaminocarbonyl)-3,4-tetrazolium]-bis(4-methoxy-6-nitro)benzenesulfonic acid) is dissolved in RPMI-1640 medium without Phenol Red. Additionally, a 0.383 mg/ml PMS (N-methyldibenzopyrazine methylsulfate) solution in phosphate-buffered saline solution (PBS) is prepared. On experimental day 4, 75 μl/well of XTT-PMS mixture is pipetted onto the cell plates which in the meantime have been incubated with the test substances for 45 h. For this, shortly before use, the XTT solution is mixed with the PMS solution in the ratio 50:1 (vol:vol). The cell plates are then incubated in the incubator for a further 3 h and the optical density (OD490 nm) is determined in a photometer. By means of the OD490 nm determined, the percentage inhibition is calculated relative to the control and plotted semilogarithmically in the form of a concentration-action curve. The IC50 is calculated by means of a regression analysis from the concentration-action curve using the program Graphpad Prism.

[2] = system: ovarian adenocarcinoma cell line SKOV-3; test: cells; type: cell-based, human; details: XTT, 45 h incubation
Excerpt: as §1, §2, §3, §4

[3] = system: RKOp27 cells (human colon carcinoma cell line RKO), p27kip1 not induced; test: cells; type: cell-based; details: without expression of p27kip1, XTT, 45 h
Excerpt: as §3, §4
(§5) The assay is carried out in 96-well plates. […] By comparison of the activity on induced and noninduced cells, conclusions on the mechanism of action (cell cycle specificity) of the therapeutics can be drawn. […] cells are inoculated in approximately three-fold higher cell count, since division no longer takes place during the assay in comparison with uninduced cells (20000 cells/well induced, 6250 cells/well not induced). The controls are untreated cells (+/−induction). The induction is carried out with 3 μM muristerone A. On the 1st day, the cells are exposed (+/−muristerone A) and incubated at 37° C. for 24 h. On day 2, the test substance is added (control DMSO) and incubation is continued at 37° C. for a further 45 h before a standard XTT assay is carried out.

[4] = system: RKOp27 cells (human colon carcinoma cell line RKO), p27kip1 induced; test: cells; type: cell-based; details: p27kip1 induced with 3 μM muristerone A, XTT, 45 h
Excerpt: as §3, §4, §5

[5] = system: human glioblastoma cell line SF-268; test: cells; type: cell-based; details: XTT, 45 h incubation
Excerpt: as §1, §2, §3, §4

[6] = system: human cervical carcinoma cell line KB/HeLa; test: cells; type: cell-based; details: XTT, 45 h incubation
Excerpt: as §1, §2, §3, §4

[7] = system: hGnRH-R negative cell line LTK−; test: GnRH-receptor dependent proliferation assay, LTK-; type: cell-based; details: 30 min exposure, vital cells vs untreated control = 100%
Method: (§6) The dose-dependent receptor-mediated inhibition of cell proliferation of selected compounds of the invention was investigated.
(§7) To study these effects a human GnRH receptor (hGnRH-R) positive cell line (5C6; Beckers et al., Eur. J. Biochem. 1995, 231: 535-543) and an hGnRH-R negative cell line (LTK^−; ECACC No. 85011432) was used.
(§8) Respective cells were exposed to 1 mL culture medium in 24 well multi-titer-plates (MTPs) with a cell number of 15000 cells per well. The cell number is adjusted in such a way that after 5 days of testing the untreated control cells are still in the exponential growth phase.
(§9) Test compounds are given to the cultured cells after 4 hours of initial growth (adherence) in a volume of 100 μL to yield the final concentrations given in table 2.
(§10) After 30 min of incubation at 37° C. the entire culture medium is sucked off and the cells are washed twice with culture medium without test compounds. After the washing the cells are placed into an incubator (at 37° C., 5% CO2 and 95% atmospheric humidity) and incubated for further 4 days.
(§11) For the determination of the cell number after incubation the cells are detached using trypsin/EDTA and centrifuged. The number of vital cells and the total cell number are counted using a Vi-Cell Analyzer (Beckman Coulter).
(§12) The number of vital cells is analyzed in comparison with untreated control cells (=100%). Only cell groups (respective wells) are considered of which the total cell viability is more than 90%, i.e. inhibition of cell proliferation by unspecific toxicity can be excluded.
(§13) The proliferation status of untreated control cells after 96 hours is set to 100%.

[8] = system: human GnRH receptor (hGnRH-R) positive cell line 5C6; test: GnRH-receptor dependent proliferation assay, 5C6; type: cell-based; details: 30 min exposure, vital cells vs untreated control = 100%
Method: as §6, §7, §8, §9, §10, §11, §12, §13

Molecule	IC50 ([1]; Homo sapiens, NCI-H460, read-out: IC50 NCI-H460) [µg/mL]	IC50 ([2]; Homo sapiens, SK-OV-3, read-out: IC50 SKOV-3) [µg/mL]	IC50 ([3]; Homo sapiens, RKOp27, read-out: IC50 RKOp27) [µg/mL]	IC50 ([4]; Homo sapiens, RKOp27, read-out: IC50 RKOp27 induced) [µg/mL]	IC50 ([5]; Homo sapiens, SF-268, read-out: IC50 SF-268) [µg/mL]	IC50 ([6]; Homo sapiens, HeLa, read-out: IC50 KB/HELA) [µg/mL]	proliferation status after 96 hours, cell line LTK−, 0.1 nM [7] [%]	proliferation status after 96 hours, cell line LTK−, 1 nM [7] [%]	proliferation status after 96 hours, cell line LTK−, 10 nM [7] [%]	proliferation status after 96 hours, cell line LTK−, 100 nM [7]	IC50 NCI-H460 [1] [µg/mL]	IC50 SKOV-3 [2] [µg/mL]	IC50 RKOp27 [3]	IC50 RKOp27 induced [4] [µg/mL]	IC50 SF-268 [5] [µg/mL]	IC50 KB/HELA [6] [µg/mL]	proliferation status after 96 hours, cell line 5C6, 0.1 nM [8] [%]	proliferation status after 96 hours, cell line 5C6, 1 nM [8] [%]	proliferation status after 96 hours, cell line 5C6, 10 nM [8] [%]	proliferation status after 96 hours, cell line 5C6, 100 nM [8]
COc1cccc2c1C(=O)c1c(O)c3c(c(O)c1C2=O)C[C@@](O)(C(=O)CO)C[C@@H]3O[C@H]1C[C@H](N)[C@H](O)[C@H](C)O1 [doxorubicin, reference compound]	0.105 (≈ 0.193 µM)	0.347 (≈ 0.638 µM)	0.082 (≈ 0.151 µM)	0.124 (≈ 0.228 µM)	0.305 (≈ 0.561 µM)	0.32 (≈ 0.589 µM)	–	–	–	–	–	–	–	–	–	–	–	–	–	–
C/C=C/[C@H](OC(=O)CCC(=O)NCCCC[C@H](NC(=O)[C@H](Cc1ccc(O)cc1)NC(=O)[C@H](CO)NC(=O)[C@H](Cc1c[nH]c2ccccc12)NC(=O)[C@H](Cc1cnc[nH]1)NC(=O)[C@@H]1CCC(=O)N1)C(=O)N[C@@H](CC(C)C)C(=O)N[C@@H](CCCNC(=N)N)C(=O)N1CCC[C@H]1C(=O)NCC(N)=O)C(C)(C)[C@@H]1C\C=C/C=C\C=C\[C@H](OC)Cc2nc(co2)C(=O)O[C@H](C(C)(C)[C@H](/C=C/C)OC(=O)CCC(=O)NCCCC[C@H](NC(=O)[C@H](Cc2ccc(O)cc2)NC(=O)[C@H](CO)NC(=O)[C@H](Cc2c[nH]c3ccccc23)NC(=O)[C@H](Cc2cnc[nH]2)NC(=O)[C@@H]2CCC(=O)N2)C(=O)N[C@@H](CC(C)C)C(=O)N[C@@H](CCCNC(=N)N)C(=O)N2CCC[C@H]2C(=O)NCC(N)=O)C/C=C\[C@H]2O[C@H]2/C=C/C=C\c2nc(co2)C(=O)O1 [compound 15, Disorazole A1 Bis Hemi Succinyl [D-Lys^6]LHRH]	–	–	–	–	–	–	108.6	111.3	108.0	101.7%	>3.16	>3.16	ca. 3.16 μg/ml	>3.16	>3.16	>3.16	95.1	98.6	66.6	43.0%
Disorazole E1 Mono Hemi Succinyl [D-Lys^6]LHRH, Both Regio-Isomers [compounds 13/14]	–	–	–	–	–	–	98.6	98.8	93.2	27.0%	0.0128	0.01685	0.01724 µg/mL	>3.16	0.05566	0.01891	–	–	–	–
COc1cccc2c1C(=O)c1c(O)c3c(c(O)c1C2=O)C[C@@](O)(C(=O)COC(=O)CCCC(=O)NCCCC[C@@H](NC(=O)[C@H](Cc1ccc(O)cc1)NC(=O)[C@H](CO)NC(=O)[C@H](Cc1c[nH]c2ccccc12)NC(=O)[C@H](Cc1c[nH]cn1)NC(=O)[C@@H]1CCC(=O)N1)C(=O)N[C@@H](CC(C)C)C(=O)N[C@@H](CCCNC(=N)N)C(=O)N1CCC[C@H]1C(=O)NCC(N)=O)C[C@@H]3O[C@H]1C[C@H](N)[C@H](O)[C@H](C)O1 [AN-152, reference compound]	–	–	–	–	–	–	–	–	–	102.3% and 101.3%	0.558 (≈ 0.295 µM)	1.238 (≈ 0.654 µM)	0.587 µg/mL (≈ 0.31 µM)	0.632 (≈ 0.334 µM)	1.258 (≈ 0.665 µM)	0.871 (≈ 0.46 µM)	–	–	–	43.9% and 42.1%
C/C=C/C(OC(=O)CCCC(=O)NCCCC[C@H](NC(=O)[C@H](Cc1ccc(O)cc1)NC(=O)[C@H](CO)NC(=O)[C@H](Cc1c[nH]c2ccccc12)NC(=O)[C@H](Cc1cnc[nH]1)NC(=O)[C@@H]1CCC(=O)N1)C(=O)N[C@@H](CC(C)C)C(=O)N[C@@H](CCCNC(=N)N)C(=O)N1CCC[C@H]1C(=O)NCC(N)=O)C(C)(C(=O)OC)C1C\C=C/C=C/C=C/c2nc(co2)C(=O)OC(C(C)(C(=O)OC)C(/C=C/C)OC(=O)CCCC(=O)NCCCC[C@H](NC(=O)[C@H](Cc2ccc(O)cc2)NC(=O)[C@H](CO)NC(=O)[C@H](Cc2c[nH]c3ccccc23)NC(=O)[C@H](Cc2cnc[nH]2)NC(=O)[C@@H]2CCC(=O)N2)C(=O)N[C@@H](CC(C)C)C(=O)N[C@@H](CCCNC(=N)N)C(=O)N2CCC[C@H]2C(=O)NCC(N)=O)C\C=C/C=C/C=C/c2nc(co2)C(=O)O1 (stereo partly drawn) [compound 17, Disorazole Z Bis Hemi Glutaryl [D-Lys^6]LHRH]	–	–	–	–	–	–	100.9	99.8	98.8	98.0%	>3.16	>3.16	>3.16 µg/mL	>3.16	>3.16	>3.16	95.5	85.9	58.5	41.7%
